Measurements taken from article PMC12274840 (The Journal of Biological Chemistry, 2025).
“And” between values parts separate entries of the source, which are not always exact repeats. Equal entries are not always repeated.

How the values were obtained:
BlaC I105R [1] = biological target: T1, BlaC I105R (Mycobacterium tuberculosis, UniProt P9WKD3, I117R); format: biochemical
BlaC I105R [2] = biological target: T1, BlaC I105R; format: biochemical; details: pH 6.4

Structure (SMILES)	in vitro sensitivity to inhibition compared with wild type (BlaC I105R [1])	k2 (BlaC I105R [1])	kcat (BlaC I105R [2])	further results
NC(=O)[C@@H]1CC[C@@H]2CN1C(=O)N2OS(=O)(=O)O [avibactam]	less sensitive	9.5 and 9.5 10^−2 s^−1	–	k-2 (BlaC I105R [1]): 0.1 and 0.1 10^−3 s^−1
CC1(C)S[C@@H]2[C@H](NC(=O)C(C(=O)O)c3ccccc3)C(=O)N2[C@H]1C(=O)O (stereo partly drawn) [carbenicillin]	–	–	0.27 ± 0.01 s⁻¹	–
O=C(O)[C@H]1/C(=C/CO)O[C@@H]2CC(=O)N21 [clavulanic acid]	less sensitive	4.6 and 4.6 10^−2 s^−1	–	k1 (BlaC I105R [1]): 1e+06 M⁻¹ s⁻¹; k3 (BlaC I105R [1]): 2 and 2 10^−3 s^−1
O=C(Cc1cccs1)N[C@@H]1C(=O)N2C(C(=O)O)=C(/C=C/c3ccc([N+](=O)[O-])cc3[N+](=O)[O-])CS[C@H]12 [nitrocefin]	–	–	24 ± 2 s⁻¹	ka (BlaC I105R [1]): 180000 M⁻¹ s⁻¹; kc (BlaC I105R [1]): 40 s⁻¹ and 57 s⁻¹
CC1(C)S[C@@H]2[C@H](NC(=O)[C@H](N)c3ccccc3)C(=O)N2[C@H]1C(=O)O [ampicillin]	–	–	3.4 ± 0.1 s⁻¹	–
